Laboratory results published in ChEMBL document CHEMBL1201862, “PubChem BioAssay data set” (2004).
Calls of active or inactive are those of the source.

What was measured:
[1] = target: T1, Small ubiquitin-related modifier 1 (Homo sapiens, UniProt P63165); assay: SUMO1 protein interaction blockers, potency – biochemical, fluorescence polarization, uHTS hits, dose response (AID 624382); format: functional; conditions: read-out: IC50_Mean
[2] = target: T1, Small ubiquitin-related modifier 1; assay: SUMO1 protein-protein binding blockers, potency – biochemical, FRET, dose response (AID 624383); format: functional; conditions: read-out: IC50_Mean
[3] = target: T2, Adenosylmethionine-8-amino-7-oxononanoate aminotransferase (Mycobacterium tuberculosis, UniProt P9WQ81); assay: Mycobacterium tuberculosis BioA enzyme inhibitor Measured in Biochemical System Using Plate Reader - 2163-02_Inhibitor_Dose_CherryPick_Activity.; format: functional, Mycobacterium tuberculosis UT205
T2 sequence (P9WQ81 whole entry): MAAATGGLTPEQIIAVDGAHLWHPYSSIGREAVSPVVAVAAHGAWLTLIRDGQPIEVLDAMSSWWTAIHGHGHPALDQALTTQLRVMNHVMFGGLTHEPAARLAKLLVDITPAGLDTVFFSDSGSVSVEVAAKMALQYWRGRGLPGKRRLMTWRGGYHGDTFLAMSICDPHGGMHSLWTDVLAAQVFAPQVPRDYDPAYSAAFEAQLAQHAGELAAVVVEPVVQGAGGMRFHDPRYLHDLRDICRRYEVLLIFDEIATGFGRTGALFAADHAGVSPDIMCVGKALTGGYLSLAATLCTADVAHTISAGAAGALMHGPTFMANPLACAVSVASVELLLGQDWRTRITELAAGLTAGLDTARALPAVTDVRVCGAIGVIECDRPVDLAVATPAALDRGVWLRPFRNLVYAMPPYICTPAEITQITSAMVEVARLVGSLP

[4] = fluconazole-exposed Candida albicans growth modulators – fluorescence, retest, confirmation (AID 2467); format: functional, cell-based
[5] = target: Photoreceptor-specific nuclear receptor (Homo sapiens, UniProt Q9Y5X4); format: functional, cell-based;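 also: CHO-S cells with Gal4-NCOR and VP16-NR2E3 two-hybrid luciferase reporter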
Protein RecA = target: T3, Protein RecA (Mycobacterium tuberculosis, UniProt P9WHJ3); assay: Fluorescence Cell-Free Homogeneous Dose Retest to Identify Inhibitors of RecA-Intein Splicing Activity. [Related pubchem assays (depositor defined):AID2097, AID2223, AID489010, AID492950]; format: functional
T3 sequence (P9WHJ3 whole entry): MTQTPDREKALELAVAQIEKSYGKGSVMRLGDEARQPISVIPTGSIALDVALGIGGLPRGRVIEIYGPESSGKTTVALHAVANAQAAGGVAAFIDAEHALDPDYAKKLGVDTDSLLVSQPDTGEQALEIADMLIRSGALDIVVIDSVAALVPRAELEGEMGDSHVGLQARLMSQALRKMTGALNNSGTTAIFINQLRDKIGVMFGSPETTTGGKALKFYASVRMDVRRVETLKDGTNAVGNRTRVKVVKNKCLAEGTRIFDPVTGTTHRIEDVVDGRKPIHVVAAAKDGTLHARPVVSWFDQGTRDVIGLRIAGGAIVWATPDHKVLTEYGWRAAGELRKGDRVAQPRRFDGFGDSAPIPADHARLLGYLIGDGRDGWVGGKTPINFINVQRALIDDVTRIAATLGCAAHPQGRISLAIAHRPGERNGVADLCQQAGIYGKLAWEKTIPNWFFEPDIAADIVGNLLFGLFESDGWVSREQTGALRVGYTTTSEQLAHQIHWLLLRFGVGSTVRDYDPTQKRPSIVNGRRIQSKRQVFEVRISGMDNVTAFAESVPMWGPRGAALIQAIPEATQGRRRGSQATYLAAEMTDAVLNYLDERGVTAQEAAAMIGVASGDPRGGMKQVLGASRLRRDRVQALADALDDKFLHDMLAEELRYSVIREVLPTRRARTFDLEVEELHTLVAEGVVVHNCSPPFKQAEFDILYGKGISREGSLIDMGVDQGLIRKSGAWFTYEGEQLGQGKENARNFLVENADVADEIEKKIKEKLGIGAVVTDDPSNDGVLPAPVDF

[6] = tested on: Streptococcus sp. 'group A'; assay: Streptococcus pyogenes SK(-)GAS viability under kanamycin – luminescence, BacTiterGlo, confirmation, counter-screen for streptokinase expression inhibitor project, dose response (AID 1900); format: functional, organism-based
cells [7] = format: functional, cell-based
[8] = target: T4, Replicative DNA helicase DnaB (Mycobacterium tuberculosis, UniProt P9WMR3); assay: DnaB intein splicing inhibitors, dose response, biochemical, cell-free fluorescence (AID 449749); format: functional
T4 sequence (P9WMR3 whole entry): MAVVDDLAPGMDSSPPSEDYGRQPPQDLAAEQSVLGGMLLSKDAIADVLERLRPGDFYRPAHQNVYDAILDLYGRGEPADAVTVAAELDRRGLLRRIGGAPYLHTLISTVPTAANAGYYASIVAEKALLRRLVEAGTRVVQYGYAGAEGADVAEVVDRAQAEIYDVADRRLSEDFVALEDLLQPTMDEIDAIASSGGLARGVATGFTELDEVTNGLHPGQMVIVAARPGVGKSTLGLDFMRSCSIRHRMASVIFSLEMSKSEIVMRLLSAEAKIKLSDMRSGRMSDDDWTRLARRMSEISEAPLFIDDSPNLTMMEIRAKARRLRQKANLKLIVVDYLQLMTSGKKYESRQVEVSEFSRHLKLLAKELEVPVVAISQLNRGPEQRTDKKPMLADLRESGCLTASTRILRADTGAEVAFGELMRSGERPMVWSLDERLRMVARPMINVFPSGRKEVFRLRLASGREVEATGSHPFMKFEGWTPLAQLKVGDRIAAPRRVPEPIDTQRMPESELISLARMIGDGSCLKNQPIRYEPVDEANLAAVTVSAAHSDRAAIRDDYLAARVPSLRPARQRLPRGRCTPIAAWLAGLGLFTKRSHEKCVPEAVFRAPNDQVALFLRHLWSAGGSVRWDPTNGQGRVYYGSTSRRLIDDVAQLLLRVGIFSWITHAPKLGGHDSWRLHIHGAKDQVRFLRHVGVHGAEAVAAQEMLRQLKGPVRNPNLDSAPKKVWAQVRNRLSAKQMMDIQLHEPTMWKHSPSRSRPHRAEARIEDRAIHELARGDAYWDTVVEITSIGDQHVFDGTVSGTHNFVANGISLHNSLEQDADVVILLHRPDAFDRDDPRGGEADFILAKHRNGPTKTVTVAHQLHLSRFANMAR

[9] = target: Dual specificity tyrosine-phosphorylation-regulated kinase 1A (Rattus norvegicus, UniProt Q63470); format: biochemical, Homo sapiens
INS1 = assay: INS-1E survival protection against cytokine death – cell-based, luminescence, retest, dose response (AID 449756); format: functional; conditions: Rattus norvegicus;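 also: cell death triggered by IL-1 beta plus TNF-alpha plus IFN-gamma mixture; protective hits raise ATP signal compared with cytokine alone wells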
[10] = DRD fibroblast viability loss – cell-based, non-viral oncogenic, luminescence, dose response (AID 1934); format: functional; conditions: Homo sapiens
Paired box protein Pax-8 = Paired box protein Pax-8 (Homo sapiens, UniProt Q06710); assay: PAX8 transcriptional activity inhibition in RMG-I – RMG-I cells, luciferase, cherry-pick, dose response (AID 687027); format: functional, cell-based;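 also: luciferase reporter driven by Pax8 target thyroperoxidase promoter measured by SteadyGlo luminescence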
cells [11] = format: functional, cell-based; remark: listed apart in the source
[12] = target: T5, Heat shock factor protein 1 (Mus musculus, UniProt P38532); assay: enhancement of HSF1-driven luciferase signal – cell-based, NIH3T3, luminescence, dose retest, confirmation (AID 435004); format: functional;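 also: stress induced by proteasome inhibitor MG132 added 30 min after compound; luciferase reporter driven by HSF1 response element in NIH3T3 cells; actives raise luminescence as potentiators of the MG132 stress response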
T5 sequence (P38532 whole entry): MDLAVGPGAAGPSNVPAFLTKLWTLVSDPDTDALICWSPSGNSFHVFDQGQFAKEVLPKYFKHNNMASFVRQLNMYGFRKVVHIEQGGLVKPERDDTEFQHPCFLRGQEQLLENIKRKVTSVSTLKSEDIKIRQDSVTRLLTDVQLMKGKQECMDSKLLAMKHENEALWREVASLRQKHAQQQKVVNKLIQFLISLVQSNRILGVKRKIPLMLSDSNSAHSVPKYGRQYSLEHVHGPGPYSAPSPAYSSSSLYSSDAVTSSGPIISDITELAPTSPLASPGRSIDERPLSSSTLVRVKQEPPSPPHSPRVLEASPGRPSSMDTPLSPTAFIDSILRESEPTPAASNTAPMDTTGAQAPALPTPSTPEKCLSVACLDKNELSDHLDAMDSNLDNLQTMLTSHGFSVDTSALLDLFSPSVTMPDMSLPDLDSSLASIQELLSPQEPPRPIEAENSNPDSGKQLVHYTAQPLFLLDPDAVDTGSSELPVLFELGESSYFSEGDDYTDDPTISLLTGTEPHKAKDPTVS

BJ [13] = assay: BJ-TERT-LT-ST fibroblast viability loss – cell-based, RAS-independent, luminescence, dose response (AID 1935); format: functional; conditions: Homo sapiens;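 also: BJ fibroblasts immortalized with TERT plus LT and ST oncogenes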
BJ [14] = assay: cells; format: functional, cell-based; conditions: Homo sapiens
Nonstructural protein 1 = Nonstructural protein 1 (Influenza A virus, UniProt Q194T2); format: functional, Influenza A virus (A/California/07/2009(H1N1))
Streptococcus = assay: GAS UMAA2166 growth inhibition – luminescence, BacTiterGlo, counter-screen for streptokinase expression inhibitor project, dose response (AID 1915); format: functional, organism-based;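 also: potency for reduction of bacterial viability or growth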
BJ [15] = assay: BJ-TERT fibroblast viability loss – cell-based, RAS-independent, luminescence, dose response (AID 1933); format: functional; conditions: Homo sapiens
[16] = NIH-3T3 fibroblast cytotoxicity, dose response, cytotoxicity control, cell-based, fluorescence, Alamar Blue, secondary assay (AID 2327); format: functional;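 also: NIH-3T3 mouse fibroblasts cultured with fluconazole at 8 µg/mL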
[17] = target: Ras and Rab interactor 1/Tyrosine-protein kinase ABL1 (Homo sapiens, UniProt P00519+Q13671); format: functional;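 also: biochemical TR-FRET dose-response test measuring inhibition of binding between Rin1 and Abl proteins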
[18] = Fluorescence-based cell-based high throughput dose response assay for inhibitors of the interaction of nucleotide-binding oligomerization domain containing 2 (NOD2) and the receptor-interacting serine-threonine kinase 2 (RIPK2).; format: functional; conditions: Homo sapiens
P388/ADR = assay: cells; format: functional; conditions: Mus musculus
Vero = assay: cells; format: functional; conditions: Chlorocebus sabaeus
P388 = assay: cells; format: functional; conditions: Mus musculus
[19] = target: Heat shock protein HSP 90-alpha (Homo sapiens, UniProt P07900); format: functional, organism-based

T1 sequence (P63165 whole entry): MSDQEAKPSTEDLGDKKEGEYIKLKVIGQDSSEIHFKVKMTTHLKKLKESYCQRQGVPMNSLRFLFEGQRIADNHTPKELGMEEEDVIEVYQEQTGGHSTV
Sequence of Ras and Rab interactor 1/Tyrosine-protein kinase ABL1 (P00519 whole entry, the tested form may be a part): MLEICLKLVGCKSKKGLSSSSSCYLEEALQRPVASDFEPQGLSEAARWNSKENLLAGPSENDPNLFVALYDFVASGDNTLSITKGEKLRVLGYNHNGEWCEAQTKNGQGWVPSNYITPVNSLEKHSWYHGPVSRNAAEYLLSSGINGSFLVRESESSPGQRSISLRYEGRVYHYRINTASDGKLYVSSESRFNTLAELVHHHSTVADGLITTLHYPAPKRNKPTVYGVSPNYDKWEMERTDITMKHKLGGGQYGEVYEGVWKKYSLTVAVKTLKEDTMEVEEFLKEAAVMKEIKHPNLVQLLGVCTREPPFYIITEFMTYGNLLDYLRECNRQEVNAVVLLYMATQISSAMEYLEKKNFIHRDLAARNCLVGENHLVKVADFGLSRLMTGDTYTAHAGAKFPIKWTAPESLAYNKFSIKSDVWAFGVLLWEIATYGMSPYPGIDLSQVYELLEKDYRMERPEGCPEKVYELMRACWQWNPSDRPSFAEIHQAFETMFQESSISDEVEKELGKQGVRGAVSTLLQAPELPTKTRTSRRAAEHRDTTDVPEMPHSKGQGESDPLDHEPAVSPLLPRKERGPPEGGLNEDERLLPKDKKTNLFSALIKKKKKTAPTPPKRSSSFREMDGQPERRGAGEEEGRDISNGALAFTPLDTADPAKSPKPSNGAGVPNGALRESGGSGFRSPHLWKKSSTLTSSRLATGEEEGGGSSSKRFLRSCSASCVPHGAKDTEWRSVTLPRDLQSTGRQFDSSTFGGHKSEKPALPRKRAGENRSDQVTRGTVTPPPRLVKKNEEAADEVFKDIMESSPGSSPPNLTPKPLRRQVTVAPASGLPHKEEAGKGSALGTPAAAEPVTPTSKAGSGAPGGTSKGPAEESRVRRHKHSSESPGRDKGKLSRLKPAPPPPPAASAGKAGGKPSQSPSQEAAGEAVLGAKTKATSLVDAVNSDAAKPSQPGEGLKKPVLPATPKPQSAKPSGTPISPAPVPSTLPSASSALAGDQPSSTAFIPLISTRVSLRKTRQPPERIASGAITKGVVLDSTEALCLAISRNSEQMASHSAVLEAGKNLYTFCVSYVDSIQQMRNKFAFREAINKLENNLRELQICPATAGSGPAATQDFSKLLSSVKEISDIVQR
Sequence of Ras and Rab interactor 1/Tyrosine-protein kinase ABL1 (Q13671 whole entry, the tested form may be a part): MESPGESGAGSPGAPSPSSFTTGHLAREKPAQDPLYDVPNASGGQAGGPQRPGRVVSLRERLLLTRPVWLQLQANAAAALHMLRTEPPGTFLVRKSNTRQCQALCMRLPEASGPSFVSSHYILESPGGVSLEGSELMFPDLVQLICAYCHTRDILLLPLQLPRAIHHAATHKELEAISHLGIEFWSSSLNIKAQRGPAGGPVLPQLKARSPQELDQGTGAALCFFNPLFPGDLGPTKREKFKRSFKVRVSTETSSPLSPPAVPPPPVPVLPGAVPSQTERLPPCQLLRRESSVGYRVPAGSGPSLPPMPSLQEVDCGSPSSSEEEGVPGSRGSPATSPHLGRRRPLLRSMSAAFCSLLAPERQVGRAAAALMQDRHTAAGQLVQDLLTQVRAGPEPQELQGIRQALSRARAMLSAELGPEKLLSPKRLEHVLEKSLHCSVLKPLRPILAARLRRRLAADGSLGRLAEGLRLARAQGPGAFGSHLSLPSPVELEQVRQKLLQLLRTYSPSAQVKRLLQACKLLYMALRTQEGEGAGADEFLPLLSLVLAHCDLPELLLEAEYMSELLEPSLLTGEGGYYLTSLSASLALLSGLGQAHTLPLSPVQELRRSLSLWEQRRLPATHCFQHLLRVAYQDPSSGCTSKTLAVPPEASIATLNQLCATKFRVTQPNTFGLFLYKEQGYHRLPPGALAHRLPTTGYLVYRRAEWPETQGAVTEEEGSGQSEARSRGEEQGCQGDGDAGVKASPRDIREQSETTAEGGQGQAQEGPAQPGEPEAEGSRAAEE
Sequence of Paired box protein Pax-8 (Q06710 whole entry): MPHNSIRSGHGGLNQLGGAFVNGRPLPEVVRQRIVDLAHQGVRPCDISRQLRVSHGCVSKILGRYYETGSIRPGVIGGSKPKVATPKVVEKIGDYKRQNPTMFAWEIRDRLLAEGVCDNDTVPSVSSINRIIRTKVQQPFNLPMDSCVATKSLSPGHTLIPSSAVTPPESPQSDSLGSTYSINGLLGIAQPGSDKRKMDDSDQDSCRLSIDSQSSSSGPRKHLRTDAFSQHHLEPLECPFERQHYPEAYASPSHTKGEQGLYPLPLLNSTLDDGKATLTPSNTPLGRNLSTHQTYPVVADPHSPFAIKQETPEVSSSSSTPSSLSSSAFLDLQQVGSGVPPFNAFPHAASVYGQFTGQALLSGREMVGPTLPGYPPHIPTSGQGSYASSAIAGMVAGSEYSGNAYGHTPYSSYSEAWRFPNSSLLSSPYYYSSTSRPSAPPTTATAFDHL
Sequence of Photoreceptor-specific nuclear receptor (Q9Y5X4 whole entry, the tested form may be a part): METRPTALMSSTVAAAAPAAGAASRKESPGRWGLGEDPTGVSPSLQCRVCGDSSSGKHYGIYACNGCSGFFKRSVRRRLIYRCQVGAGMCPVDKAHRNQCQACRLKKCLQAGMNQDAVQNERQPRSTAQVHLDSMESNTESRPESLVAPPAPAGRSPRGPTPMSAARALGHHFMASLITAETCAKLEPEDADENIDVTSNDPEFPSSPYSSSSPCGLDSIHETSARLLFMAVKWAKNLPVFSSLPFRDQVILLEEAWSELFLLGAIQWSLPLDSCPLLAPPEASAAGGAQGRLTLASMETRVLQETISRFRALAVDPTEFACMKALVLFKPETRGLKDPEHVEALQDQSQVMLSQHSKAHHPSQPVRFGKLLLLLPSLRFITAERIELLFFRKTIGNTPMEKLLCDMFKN
Sequence of Nonstructural protein 1 (Q194T2 whole entry): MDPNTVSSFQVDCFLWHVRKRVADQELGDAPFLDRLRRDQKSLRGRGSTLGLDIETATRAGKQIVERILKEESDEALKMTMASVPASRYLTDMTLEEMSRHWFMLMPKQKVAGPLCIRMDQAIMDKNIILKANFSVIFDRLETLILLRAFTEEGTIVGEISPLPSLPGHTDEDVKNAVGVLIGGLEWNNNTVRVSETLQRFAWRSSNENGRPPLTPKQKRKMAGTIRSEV

Structure (SMILES): CC(=O)c1cccc(NC(=O)c2cccc(N3C(=O)c4ccccc4C3=O)c2)c1
- IC50 [1]: > 66.6 µM (inactive)
- IC50 [2]: 8.03 µM (active)

Structure (SMILES): Cc1ccc(Cc2c(C)nc3nc(SCC(=O)NCCN4CCOCC4)nn3c2C)cc1
- AC50 [3]: 12.6 µM (active)

Structure (SMILES): Oc1[nH]c2ccc(Br)cc2c1N=NC(=S)N1CCOCC1
- EC50 [4]: 3.18 µM (active)
- IC50 [5]: 1.81 µM (active)
- EC50 (Protein RecA): 22.7 µM (active)
- EC50 [6]: < 0.06 µM (active)
- EC50 (cells [7]): 137 µM (active)
- AC50 [8]: > 380 µM (inactive)
- AC50 [9]: 7.39 µM (active)
- AC50 (INS1): 1.6 µM (active)
- EC50 [10]: 7.46 µM (inconclusive)
- AC50 (Paired box protein Pax-8): 1.55 µM (active)
- EC50 (cells [11]): > 350 µM (not active)
- EC50 [12]: > 260 µM (inactive)
- EC50 (BJ [13]): 5.1 µM (inconclusive)
- EC50 (BJ [14]): 12.8 µM (inconclusive)
- IC50 (Nonstructural protein 1): 19.9 µM (active)
- EC50 (Streptococcus): 0.167 µM (active)
- EC50 (BJ [15]): 1.81 µM (inconclusive)
- EC50 [16]: > 150 µM (inconclusive)

Structure (SMILES): O=C(CCS(=O)(=O)c1ccc(Br)cc1)N1CCCCCC1
- IC50 [1]: > 66.6 µM (inactive)
- IC50 [2]: 13 µM (active)

Structure (SMILES): O=C1CNC(=O)N1CC(O)Cn1c2ccccc2c2ccccc21 (centres undefined)
- IC50 [17]: 11.9 µM (inactive)

Structure (SMILES): COc1ccc(CC2C(=O)NC(C)C(=O)N(C)C3Cc4ccc(cc4)Oc4cc(ccc4O)CC(C(=O)NC(C)C(=O)NC(C)C(=O)N2C)N(C)C3=O)cc1 (centres undefined)
- IC50 [18]: 49.8 µM (inactive)
- AC50 (Paired box protein Pax-8): < 0.26 µM (active)
- GI50 (P388/ADR): 3.94 µM (inactive)
- CC50 (Vero): 3.44 µM (active)
- GI50 (P388): 0.0175 µM (active)

Structure (SMILES): CC1CC(C)C(=NNC(N)=O)C(C(O)CC2CCC(=O)NC2=O)C1 (centres undefined)
- IC50 [5]: 2.53 µM (active)
- AC50 [19]: < 0.195 µM (active)
- CC50 (Vero): > 25 µM (active)

Structure (SMILES): C[C@@H]1CCCCO[C@@H](CN(C)S(=O)(=O)c2ccccc2)[C@@H](C)CN([C@H](C)CO)C(=O)c2cc(NS(=O)(=O)c3ccc(F)cc3)ccc2O1
- IC50 [17]: 1.9 µM (active)

Structure (SMILES): COCCNC(=O)C[C@@H]1CC[C@@H]2[C@@H](COc3ccc(NC(=O)Nc4cccc(F)c4)cc3C(=O)N2C)O1
- AC50 [3]: 10.8 µM (active)
